Assay results as given in US7872005B2, “2-substituted heteroaryl compounds” (Synta Pharmaceuticals Corporation, priority 2004, dated 2011).

Tested on: IL-12 production in human PBMC or THP-1 cells
Assay: In vitro inhibition of IL-12 production in stimulated human PBMC or THP-1 cells (ELISA)
Assay type: cell-based
Conditions: representative in vitro IC50 data
From the text: The biological activities of a heterocyclic compound can be evaluated by a number of cell-based assays. One of such assays can be conducted using cells from human peripheral blood mononuclear cells (PBMC) or human monocytic cell line (THP-1). The cells are stimulated with a combination of human interferon-γ (IFNγ) and lipopolysaccharide or a combination of IFNγ and Staphylococcus aureus Cowan I in the presence of a test compound. The level of inhibition of IL-12 production can be measured by determining the amount of p70 by using a sandwich ELISA assay with anti-human IL-12 antibodies. IC50 of the test compound can then be determined. Specifically, PBMC or THP-1 cells are incubated with the test compound. Cell viability was assessed using the bioreduction of MTS [3-(4,5-dimethylthiazol-2-yl)-5-(3-carboxymethoxyphenyl)-2-(4-sulfophenyl)-2H-tetrazolium] (Promega, Madison, Wis.).
Reagents. Staphylococcus aureus Cowan I (SAC) was obtained from Calbiochem (La Jolla, Calif.), and lipopolysaccharide (LPS, Serratia marscencens) was obtained from Sigma (St. Louis, Mo.). Human and mouse recombinant IFNγ were purchased from Boehringer Mannheim (Mannheim, Germany) and Pharmingen (San Diego, Calif.), respectively.
Human In Vitro Assay. Human PBMC were isolated by centrifugation using Ficoll-Paque (Pharmacia Biotech, Uppsala, Sweden) and prepared in RPMI medium supplemented with 10% fetal calf serum (FCS), 100 U/mL penicillin, and 100 μg/mL streptomycin. PBMC were plated in wells of a 96-well plate at a concentration of 5×10^5 cells/well, and primed by adding IFNγ (30 U/mL) for 22 h and stimulated by adding LPS (1 μg/mL), or by adding IFNγ (100 U/mL) and then stimulated by adding SAC (0.01%). A test pyrimidine compound was dissolved in DMSO, and added to wells of the 96-well plate. The final DMSO concentration was adjusted to 0.25% in all cultures, including the compound-free control. Human THP-1 cells were plated in wells, primed by adding IFNγ (100 U/mL) for 22 h and stimulated by adding SAC (0.025%) in the presence of different concentrations of the pyrimidine compound. Cell-free supernatants were taken 18 h later for measurement of cytokines. Cell viability was assessed using the bioreduction of MTS. Cell survival was estimated by determining the ratio of the absorbance in compound-treated groups versus compound-free control.
The supernatant was assayed for the amount of IL-12p40, IL-12p70, or IL-10 by using a sandwich ELISA with anti-human antibodies, i.e., a Human IL-12 p40 ELISA kit from R&D Systems (Berkeley, Calif.), and a Human IL-12 p70 or IL-10 ELISA kit from Endogen (Cambridge, Mass.). Assays were based on the manufacturer's instructions.
The biological activities of pyrimidine compounds were tested on human PBMC or THP-1 cells. Unexpectedly, some of the test compounds have IC50 values as low as <1 nM.

SMILES | IC50
Cc1cccc(/C=N/Nc2cc(N3CCOCC3)nc(CCCOC(=O)Nc3cccc(C(F)(F)F)c3)n2)c1 [Compound 2, (3-Trifluoromethyl-phenyl)-carbamic acid 3-{4-[N′-(3-methyl-benzylidene)-hydrazino]-6-morpholin-4-yl-pyrimidin-2-yl}-propyl ester] | < 25 nM
Cc1cccc(/C=N/Nc2cc(N3CCOCC3)nc(CCSc3nnnn3CCN(C)C)n2)c1 [Compound 18, Dimethyl-{2-[5-(2-{4-[N′-(3-methyl-benzylidene)-hydrazino]-6-morpholin-4-yl-pyrimidin-2-yl}-ethylsulfanyl)-tetrazol-1-yl]-ethyl}-amine] | < 25 nM
Cc1cccc(/C=N/Nc2cc(N3CCOCC3)nc(CCNS(=O)(=O)N(C)C)n2)c1 [Compound 54, 1,1-Dimethyl-3-(2-{4-[N′-(3-methyl-benzylidene)-hydrazino]-6-morpholin-4-yl-pyrimidin-2-yl}-ethyl)-sulfamide] | < 25 nM
Cc1cccc(/C=N/Nc2cc(N3CCOCC3)nc(CCCOC(=O)Nc3cccc4ccccc34)n2)c1 [Compound 10, Naphthalen-1-yl-carbamic acid 3-{4-[N′-(3-methyl-benzylidene)-hydrazino]-6-morpholin-4-yl-pyrimidin-2-yl}-propyl ester] | > 50 nM
Cc1cccc(/C=N/Nc2cc(N3CCOCC3)nc(CCCOC(=O)Nc3ccc(Oc4ccccc4)cc3)n2)c1 [Compound 11, (4-Phenoxy-phenyl)-carbamic acid 3-{4-[N′-(3-methyl-benzylidene)-hydrazino]-6-morpholin-4-yl-pyrimidin-2-yl}-propyl ester] | 25 to 50 nM
Cc1cccc(/C=N/Nc2cc(N3CCOCC3)nc(CCOC(=O)Nc3ccc(C#N)cc3)n2)c1 [Compound 22, (4-Cyano-phenyl)-carbamic acid 2-{4-[N′-(3-methyl-benzylidene)-hydrazino]-6-morpholin-4-yl-pyrimidin-2-yl}-ethyl ester] | < 25 nM
Cc1cccc(/C=N/Nc2cc(N3CCOCC3)nc(CCCOC(=O)Nc3ccccc3F)n2)c1 [Compound 6, (2-Fluoro-phenyl)-carbamic acid 3-{4-[N′-(3-methyl-benzylidene)-hydrazino]-6-morpholin-4-yl-pyrimidin-2-yl}-propyl ester] | < 25 nM
CCNC(=O)OCCCc1nc(N/N=C/c2cccc(C)c2)cc(N2CCOCC2)n1 [Compound 8, Ethyl-carbamic acid 3-{4-[N′-(3-methyl-benzylidene)-hydrazino]-6-morpholin-4-yl-pyrimidin-2-yl}-propyl ester] | < 25 nM
Cc1cccc(/C=N/Nc2cc(N3CCOCC3)nc(CCOC(=O)Nc3ccc([N+](=O)[O-])cc3)n2)c1 [Compound 15, (4-Nitro-phenyl)-carbamic acid 2-{4-[N′-(3-methyl-benzylidene)-hydrazino]-6-morpholin-4-yl-pyrimidin-2-yl}-ethyl ester] | < 25 nM
Cc1cccc(/C=N/Nc2cc(N3CCOCC3)nc(CCOC(=O)Nc3ccc(Cl)cc3)n2)c1 [Compound 21, (4-Chloro-phenyl)-carbamic acid 2-{4-[N′-(3-methyl-benzylidene)-hydrazino]-6-morpholin-4-yl-pyrimidin-2-yl}-ethyl ester] | 25 to 50 nM
COc1cccc(NC(=O)OCCCc2nc(N/N=C/c3cccc(C)c3)cc(N3CCOCC3)n2)c1 [Compound 1, (3-Methoxy-phenyl)-carbamic acid 3-{4-[N′-(3-methyl-benzylidene)-hydrazino]-6-morpholin-4-yl-pyrimidin-2-yl}-propyl ester] | 25 to 50 nM
Cc1cccc(/C=N/Nc2cc(N3CCOCC3)nc(CCOC(=O)Nc3ccc(C(C)C)cc3)n2)c1 [Compound 20, (4-Isopropyl-phenyl)-carbamic acid 2-{4-[N′-(3-methyl-benzylidene)-hydrazino]-6-morpholin-4-yl-pyrimidin-2-yl}-ethyl ester] | > 50 nM
Cc1ccc(NC(=O)OCCCc2nc(N/N=C/c3cccc(C)c3)cc(N3CCOCC3)n2)cc1 [Compound 3, p-Tolyl-carbamic acid 3-{4-[N′-(3-methyl-benzylidene)-hydrazino]-6-morpholin-4-yl-pyrimidin-2-yl}-propyl ester] | < 25 nM
Cc1cccc(/C=N/Nc2cc(N3CCOCC3)nc(CCC(C)(C)OC(=O)Nc3cccc(C(F)(F)F)c3)n2)c1 [Compound 27, (3-Trifluoromethyl-phenyl)-carbamic acid 1,1-dimethyl-3-{4-[N′-(3-methyl-benzylidene)-hydrazino]-6-morpholin-4-yl-pyrimidin-2-yl}-propyl ester] | > 50 nM
Cc1cccc(/C=N/Nc2cc(N3CCOCC3)nc(CCCOC(=O)NC3CCCCC3)n2)c1 [Compound 5, Cyclohexyl-carbamic acid 3-{4-[N′-(3-methyl-benzylidene)-hydrazino]-6-morpholin-4-yl-pyrimidin-2-yl}-propyl ester] | < 25 nM
Cc1cccc(/C=N/Nc2cc(N3CCOCC3)nc(CCSc3nnc(-c4ccncc4)[nH]3)n2)c1 [Compound 25, N-(3-Methyl-benzylidene)-N′-{6-morpholin-4-yl-2-[2-(5-pyridin-4-yl-4H-[1,2,4]triazol-3-ylsulfanyl)-ethyl]-pyrimidin-4-yl}-hydrazine] | < 25 nM
Cc1ccc(NC(=O)OCCOc2nc(N/N=C/c3cccc(C)c3)cc(N3CCOCC3)n2)cc1 [Compound 19, p-Tolyl-carbamic acid 2-{4-[N′-(3-methyl-benzylidene)-hydrazino]-6-morpholin-4-yl-pyrimidin-2-yloxy}-ethyl ester] | < 25 nM
Cc1cccc(/C=N/Nc2cc(N3CCOCC3)nc(CC(C)(C)OC(=O)Nc3ccc(C(F)(F)F)cc3)n2)c1 [Compound 30, (4-Trifluoromethyl-phenyl)-carbamic acid 1,1-dimethyl-2-{4-[N′-(3-methyl-benzylidene)-hydrazino]-6-morpholin-4-yl-pyrimidin-2-yl}-ethyl ester] | < 25 nM
Cc1ccc(NC(=O)OCCCc2nc(N3CCOCC3)cc(N(C)/N=C/c3cccc(C)c3)n2)cc1 [Compound 14, p-Tolyl-carbamic acid 3-{4-[N-methyl-N′-(3-methyl-benzylidene)-hydrazino]-6-morpholin-4-yl-pyrimidin-2-yl}-propyl ester] | < 25 nM
Cc1ccc(NC(=O)OCCc2nc(N/N=C/c3cccc(C)c3)cc(N3CCOCC3)n2)cc1 [Compound 13, p-Tolyl-carbamic acid 2-{4-[N′-(3-methyl-benzylidene)-hydrazino]-6-morpholin-4-yl-pyrimidin-2-yl}-ethyl ester] | < 25 nM
Cc1cccc(/C=N/Nc2cc(N3CCOCC3)nc(OCCOC(=O)Nc3cccnc3)n2)c1 [Compound 106, Pyridin-3-yl-carbamic acid 2-{4-[N′-(3-methyl-benzylidene)-hydrazino]-6-morpholin-4-yl-pyrimidin-2-yloxy}-ethyl ester] | < 25 nM
Cc1cccc(/C=N/Nc2cc(N3CCOCC3)nc(OCC(C)(C)OC(=O)Nc3cccc(C(F)(F)F)c3)n2)c1 [Compound 28, (3-Trifluoromethyl-phenyl)-carbamic acid 1,1-dimethyl-2-{4-[N′-(3-methyl-benzylidene)-hydrazino]-6-morpholin-4-yl-pyrimidin-2-yloxy}-ethyl ester] | < 25 nM
Cc1cccc(/C=N/Nc2cc(N3CCOCC3)nc(CCOC(=O)Nc3ccccc3)n2)c1 [Compound 24, Phenyl-carbamic acid 2-{4-[N′-(3-methyl-benzylidene)-hydrazino]-6-morpholin-4-yl-pyrimidin-2-yl}-ethyl ester] | < 25 nM
Cc1cccc(/C=N/Nc2cc(N3CCOCC3)nc(CCCOC(=O)Nc3ccc([N+](=O)[O-])cc3)n2)c1 [Compound 7, (4-Nitro-phenyl)-carbamic acid 3-{4-[N′-(3-methyl-benzylidene)-hydrazino]-6-morpholin-4-yl-pyrimidin-2-yl}-propyl ester] | < 25 nM
COC(=O)c1ccc(NC(=O)OCCc2nc(N/N=C/c3cccc(C)c3)cc(N3CCOCC3)n2)cc1 [Compound 23, 4-(2-{4-[N′-(3-Methyl-benzylidene)-hydrazino]-6-morpholin-4-yl-pyrimidin-2-yl}-ethoxycarbonylamino)-benzoic acid methyl ester] | < 25 nM
